pIC50: −log10 of the molar value. Marks after values point to notes of the source that are not given here.
Experiments:
[1] = test system: L3.6pl human pancreatic cancer cells; experiment: Immunohistochemical analysis of human pancreatic carcinoma in the pancreas of treated nude mice; assay type: in vivo; settings: for PCNA+ tumor cells / TUNEL+ tumor cells: mean ± SD, 10 random 0.159-mm^2 fields at ×100; for CD (CD31, tumor MVD per field): staining with antibodies against CD31
Source text: Immunohistochemical (IHC) Determination of VEGF, IL-8, PCNA, CD31/PECAM-1, and EGF-R. Paraffin-embedded tissues were used for identification of VEGF, IL-8, EGF-R, and proliferating cell nuclear antigen (PCNA). Sections (4–6 μm thick) were mounted on positively-charged Superfrost slides (Fisher Scientific, Co., Houston, Tex.) and dried overnight. Sections were deparaffinized in xylene followed by treatment with a graded series of alcohol (100%, 95%, 80% ethanol/ddH2O [v/v]) and rehydrated in PBS, pH 7.5. Sections analyzed for PCNA were microwaved 5 min for “antigen retrieval” (Shi et al. 1991). All other paraffin-embedded tissues were treated with pepsin (Biomeda) for 15 min at 37° C. and washed with PBS. Frozen tissues used for identification of CD31/PECAM-1, and activated EGF-R were sectioned (8–10 μm), mounted on positively charged Plus slides (Fisher Scientific), and air-dried for 30 min. Frozen sections were fixed in cold acetone (5 min), acetone/chloroform (v/v) (5 min), and acetone (5 min) and washed with PBS. Immunohistochemical procedures were performed as described previously (Rak et al. 1996). Positive reaction was visualized by incubating the slides with stable 3,3′-diaminobenzidine (DAB) for 10–20 min or 3-amino-9-ethylcarbazole (AEC) after CD31 staining. The sections were rinsed with distilled water, counterstained with Gill's hematoxylin for 1 min, and mounted with Universal Mount (Research Genetics). […] Sections analyzed for activated EGF-R were pretreated with goat anti-mouse IgG F(ab)2 fragment (1:10 dilution in PBS) for 4–6 h before incubation with the primary antibody. The positive reaction following staining for activated EGF-R was enhanced with osmium tetraoxide (4% aqueous solution) at a 1:1000 dilution in ddH2O after incubation with DAB.
Immunofluorescence Double Staining for CD31/PECAM-1 (Endothelial Cells) and TUNEL (Apoptotic Cells). Frozen tissues were sectioned (8–10 μm), mounted on positively charged slides, air-dried for 30 min, and fixed in cold acetone for 5 min, acetone+chloroform (1:1) for 5 min, and acetone for 5 min. Samples were washed 3 times with PBS, incubated with protein-blocking solution containing 5% normal horse serum and 1% normal goat serum in PBS for 20 min at room temperature, and incubated with the appropriate dilution (1:400) of rat monoclonal anti-mouse CD31 antibody (human cross-reactive) over 18 h at 4° C. After the samples were rinsed 4 times for 3 min each with PBS, the slides were incubated with the appropriate dilution (1:200) of secondary goat anti-rat conjugated to Texas Red for 1 h at room temperature in the dark. Samples were washed twice with PBS containing 0.1% Brij and washed with PBS for 5 min.
TUNEL was performed using a commercially available apoptosis detection kit with the following modifications: samples were fixed with 4% paraformaldehyde (methanol-free) for 10 min at room temperature, washed twice with PBS for 5 min, and then incubated with 0.2% Triton X-100 for 15 min at room temperature. After two washes of 5 min each with PBS, the samples were incubated with equilibration buffer (from kit) for 10 min at room temperature. The equilibration buffer was drained, and reaction buffer containing equilibration buffer, nucleotide mix, and TdT enzyme was added to the tissue sections and incubated in a humid atmosphere at 37° C. for 1 h in the dark. The reaction was terminated by immersing the samples in 2×SSC for 15 min. Samples were washed 3 times for 5 min to remove unincorporated fluorescein-dUTP. For quantification of […], the samples were incubated with 300 μg/ml of Hoechst stain for 10 min at room temperature. Fluorescent bleaching was minimized by treating slides with an enhancing reagent (Prolong solution). […]

EGF-R = molecular target: T1, EGF-R (Homo sapiens, UniProt P00533); experiment: Western blot analysis of EGF-R autophosphorylation in L3.6pl cells; assay type: cell-based; settings: concentration of 10 μM (data not shown)
T1 construct: endogenous in cells; host or cells: L3.6pl human pancreatic cancer cells
Description: Western Blot Analysis of EGF-R Autophosphorylation following Treatment with PKI166. […] without 40 ng/ml rhEGF for 10 min, washed, and scraped into PBS containing 5 mM EDTA and 1 mM Na Orthovanadate, and centrifuged, and the pellet resuspended in lysis buffer (20 mM Tris-HCl, pH 8.0, 137 mM NaCl, 10% glycerol, 2 mM EDTA, 1 mM phenylmethylsulfonyl fluoride, 20 μM leupeptin, and 0.15 U/ml aprotinin) sonicated, and centrifuged to recover […] protein. Immunoprecipitation was performed using Mab anti-EGF-R (clone EGF-RI) as described previously (Perrotte et al. 1999; Parker et al. 1998). Immunoprecipitates were analyzed on 7.5% NaDodSO4-PAGE and transferred onto 0.45-μm nitrocellulose membranes. The filters were blocked with 3% bovine serum albumin in TDS (20 mM Tris-HCl, pH 7.5, 150 mM NaCl), probed with either polyclonal sheep anti-human EGF-R (1:1000) or monoclonal anti-phosphotyrosine (Mab 4G10) (1:2000) in TTBS (0.1% Tween 20 in TBS), and incubated with horseradish peroxidase-conjugated donkey anti-sheep IgG (1:2000) (Sigma Immunochemicals, St. Louis, Mo.) or sheep anti-mouse IgG (1:2000), respectively, in TTBS. Protein bands were visualized by ECL detection system. For an additional experiment, serum-starved L3.6pl cells were treated with gemcitabine (10 nM) with or without PKI166 (0.05, 0.5 μM) for 1 h, and then incubated with or without rhEGF (40 ng/ml) for 10 min. […]

L3.6pl cells = experiment: In vitro cytotoxicity assay (MTT); assay type: cell-based; settings: Homo sapiens, 144 h, 6 days
Description: In Vitro Cytotoxicity Assay. In all assays, 700–1000 tumor cells were seeded into 38-mm^2 wells of flat-bottomed 96-well plates in quadruplicate and allowed to adhere overnight. The cultures were then washed and refed with medium (negative control) or medium containing PKI166 with or without gemcitabine. […] Following a 2–4 h incubation in medium containing 0.42 mg/ml of MTT, the cells were lysed in DMSO. The conversion of MTT to formazan by metabolically viable cells was monitored by an MR-5000 96-well microtiter plate reader at 570 nm (Dynatech, Inc., Chantilly, Va.). Growth inhibition was calculated from the formula: Cytostasis (%)=[1−(A/B)]×100, where A is the absorbance of treated cells and B is the absorbance of the control cells.

VEGF = experiment: In vitro expression of VEGF by L3.6pl cells (ELISA); assay type: cell-based, human; settings: 72 h, 1 μM PKI166 or 10 nM gemcitabine, control 1400 pg/ml
Description: (§1) In vitro Expression of VEGF and IL-8. L3.6pl cells (2000 cells/38 mm^2 well) were plated into 96-well plates in 200 μl supplemented DMEM containing 5% FBS for 24 h, and then treated with 0.05, 0.5, or 1 μM PKI166. Supplemented DMEM (5% FBS) and human IgG (10 μg/ml) served as controls. Seventy-two hours later, the culture supernatants were collected, and the level of VEGF and IL-8 proteins (corrected for cell number) were determined by Quantikine ELISA kits.

IL-8 = experiment: In vitro expression of IL-8 by L3.6pl cells (ELISA); assay type: cell-based, human; settings: 72 h, 1 μM PKI166 or 10 nM gemcitabine, control 1440 pg/ml
Description: as §1

[2] = test system: L3.6pl human pancreatic cancer cells; experiment: Preliminary gemcitabine dose-response experiment in nude mice with pancreatic tumors; assay type: in vivo; settings: gemcitabine 250 mg/kg and 500 mg/kg compared to 125 mg/kg (data not shown)
Description: To evaluate the therapeutic effect of gemcitabine in this animal model, a preliminary dose-response experiment was performed. […] All mice were killed on day 35. The volume of tumors and incidence of metastasis were determined.

[3] = test system: L3.6pl human pancreatic cancer cells
Source text: Animals and Orthotopic Implantation of Tumor Cells. Male athymic nude mice (NCr-nu) were purchased from the Animal Production Area of the National Cancer Institute-Frederick Cancer Research and Development Center (Frederick, Md.). The mice were housed and maintained in laminar flow cabinets under specific pathogen-free conditions in facilities approved by the American Association for Accreditation of Laboratory Animal Care and in accordance with current regulations and standards of the U. S. Department of Agriculture, U.S. Department of Health and Human Services, and the National Institutes of Health. The mice were used in accordance with institutional guidelines when they were 8 to 12 wk old.
Orthotopic Implantation of Tumor Cells. To produce tumors, L3.6pl cells were harvested from subconfluent cultures by a brief exposure to 0.25% trypsin and 0.02% EDTA. Trypsinization was stopped with medium containing 10% FBS, and the cells were washed once in serum-free medium and resuspended in HBSS. Only suspensions consisting of single cells with greater than 90% viability were used for the injections. Cells were injected into the pancreas as described previously. The mice were killed when moribund (5–6 wk). The size and weight of the primary pancreatic tumors, the incidence of regional (celiac and paraaortal) lymph node metastasis, and the number of liver metastases were recorded. Histopathology confirmed the nature of the disease.
Therapy of Established Human Pancreatic Carcinoma Tumors Growing in the Pancreas of Athymic Nude Mice. Seven days after implantation of tumor cells into the pancreas, 5 mice were killed and the presence of tumor lesions was determined. At this time, the median tumor volume was 18 mm^3. Histological examination confirmed the lesions to be actively growing pancreatic cancer.
Necropsy Procedures and Histological Studies. Mice were euthanized and the body weight was determined. Primary tumors in the pancreas were excised and weighed. […] Visible liver metastases were counted with the aid of a dissecting microscope and processed for H&E staining. All macroscopically enlarged regional (celiac and paraaortal) lymph nodes were harvested, and the presence of metastatic disease was confirmed by histology.

[4] = mean ± SD absorbance, ratio of tumor cell to normal pancreatic gland expression ×100, day 35

T1 sequence (P00533 25-1210): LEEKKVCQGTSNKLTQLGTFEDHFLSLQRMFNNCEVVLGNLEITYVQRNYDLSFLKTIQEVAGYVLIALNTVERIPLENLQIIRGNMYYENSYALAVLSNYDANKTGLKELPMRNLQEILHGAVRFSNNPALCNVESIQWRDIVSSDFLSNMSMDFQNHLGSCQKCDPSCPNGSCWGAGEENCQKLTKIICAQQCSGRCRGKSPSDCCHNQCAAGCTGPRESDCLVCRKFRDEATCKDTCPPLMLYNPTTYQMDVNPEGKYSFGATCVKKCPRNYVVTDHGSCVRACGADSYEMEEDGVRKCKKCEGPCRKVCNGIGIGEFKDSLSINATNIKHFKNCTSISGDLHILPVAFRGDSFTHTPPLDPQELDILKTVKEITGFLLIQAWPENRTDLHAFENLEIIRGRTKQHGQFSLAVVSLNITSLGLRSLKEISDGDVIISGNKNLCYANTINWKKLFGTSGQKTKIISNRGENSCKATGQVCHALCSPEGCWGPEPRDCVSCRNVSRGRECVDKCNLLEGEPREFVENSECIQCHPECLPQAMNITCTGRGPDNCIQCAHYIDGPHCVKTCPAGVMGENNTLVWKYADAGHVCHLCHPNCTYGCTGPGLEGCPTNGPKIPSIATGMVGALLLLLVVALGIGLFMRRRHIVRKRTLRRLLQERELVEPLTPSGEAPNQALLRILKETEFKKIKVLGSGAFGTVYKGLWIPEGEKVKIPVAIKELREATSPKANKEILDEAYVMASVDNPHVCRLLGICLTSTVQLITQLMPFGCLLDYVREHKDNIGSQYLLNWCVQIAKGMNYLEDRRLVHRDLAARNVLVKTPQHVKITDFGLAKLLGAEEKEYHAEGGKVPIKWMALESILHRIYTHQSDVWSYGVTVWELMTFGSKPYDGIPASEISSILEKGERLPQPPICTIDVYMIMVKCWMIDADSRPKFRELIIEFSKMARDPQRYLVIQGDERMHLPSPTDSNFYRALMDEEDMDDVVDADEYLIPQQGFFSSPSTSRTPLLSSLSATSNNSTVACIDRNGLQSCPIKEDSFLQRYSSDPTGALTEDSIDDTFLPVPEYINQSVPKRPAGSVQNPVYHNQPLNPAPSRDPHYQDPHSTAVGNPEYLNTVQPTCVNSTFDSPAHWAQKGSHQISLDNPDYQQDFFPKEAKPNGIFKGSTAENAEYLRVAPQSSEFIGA

## Nc1ccn([C@@H]2O[C@H](CO)[C@@H](O)C2(F)F)c(=O)n1 [gemcitabine]
[1]; calculated
  ratio of PCNA-positive over TUNEL-positive cells: 1.1
[1]; immunohistochemistry of tumors from treated nude mice
  Staining of pancreatic tumors for activated (phosphorylated) EGF-R: stained positive
[1]; [4]
  IL-8: 299 ± 43
  VEGF: 298 ± 54
[1]; day 35
  PCNA+ tumor cells: 237±66 positive cells/field
  TUNEL+ tumor cells: 225±95 positive cells/field
  CD (CD31, tumor MVD per field): 52±18
[1]; day 35, listed as Gemcitabine
  PCNA+ tumor cells: 237 ± 66 positive cells/field
  TUNEL+ tumor cells: 225 ± 95^e positive cells/field
  CD (CD31, tumor MVD per field): 52
EGF-R
  Effect on autophosphorylation of EGF-R: did not affect
L3.6pl cells; gemcitabine alone
  pIC50: 6.06
L3.6pl cells; in the presence of PKI166 (0.03 μM)
  pIC50: 6.28
VEGF
  VEGF in culture supernatant: 1280 pg/mL
IL-8
  IL-8 in culture supernatant: 2000 pg/mL
[2]
  Effect of increasing the dose on pancreatic tumor growth and metastasis: did not further reduce
[3]; day 35
  Histologically positive regional lymph node metastases, share of animals: 90%
[3]; human pancreatic carcinoma in pancreas of nude mice
  Reduction of growth of primary pancreatic neoplasms: 45%

From patent US7344829B2, “Methods for detecting the efficacy of anticancer treatments” (Board of Regents, the University of Texas System, priority 2000, dated 2008)
